Data reported in ChEMBL document CHEMBL5291721, “A preclinical secondary pharmacology resource illuminates target-adverse drug reaction associations of marketed drugs” (Nat Commun, 2023).
*1 amine or outer side, *2 acyl side, *3 side chain or, on linkers, in order; H or OH if unused. Where a SMILES comes first, the peptide text is derived from it. Bridges are numbered along the chain shown (N, C = ends). [ ]: non-standard residue; d: D form. The star is where a group is joined. hTyr(3S-OH,4S-OH,3'-OSO3H) = N[C@H](C(=O)O)[C@H](O)[C@@H](O)c1ccc(O)c(OS(=O)(=O)O)c1; Orn(4R-OH,5R-OH) = O=C([C@H](C[C@@H](O)[C@@H](O)N[*:3])N[*:1])[*:2]; Pro(3S-OH,4S-Me) = C[C@H]1CN[C@H](C(=O)O)[C@H]1O; X1 = CCCCCOc1ccc(-c2cc(-c3ccc(C(=O)*)cc3)no2)cc1; Gln(3R-OH) = NC(=O)C[C@@H](O)[C@H](N)C(=O)O; Hyp = O=C(O)[C@@H]1C[C@@H](O)CN1

How the values were obtained:
[1] = target: D(3) dopamine receptor (Homo sapiens, UniProt P35462)
Chain of D(3) dopamine receptor (P35462 whole entry): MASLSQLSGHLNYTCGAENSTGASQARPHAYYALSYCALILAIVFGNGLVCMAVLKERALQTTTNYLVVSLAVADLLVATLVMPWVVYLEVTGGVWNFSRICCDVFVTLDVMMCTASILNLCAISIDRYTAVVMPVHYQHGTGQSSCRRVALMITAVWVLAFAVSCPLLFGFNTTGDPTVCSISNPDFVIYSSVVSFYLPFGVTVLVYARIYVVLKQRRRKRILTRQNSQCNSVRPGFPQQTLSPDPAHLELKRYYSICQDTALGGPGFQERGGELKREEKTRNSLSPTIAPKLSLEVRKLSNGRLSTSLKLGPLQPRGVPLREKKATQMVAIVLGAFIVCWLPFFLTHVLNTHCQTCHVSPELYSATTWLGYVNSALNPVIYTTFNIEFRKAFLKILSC

[2] = target: T1, Alpha-2A adrenergic receptor (Homo sapiens, UniProt P08913)
T1 sequence (P08913 whole entry): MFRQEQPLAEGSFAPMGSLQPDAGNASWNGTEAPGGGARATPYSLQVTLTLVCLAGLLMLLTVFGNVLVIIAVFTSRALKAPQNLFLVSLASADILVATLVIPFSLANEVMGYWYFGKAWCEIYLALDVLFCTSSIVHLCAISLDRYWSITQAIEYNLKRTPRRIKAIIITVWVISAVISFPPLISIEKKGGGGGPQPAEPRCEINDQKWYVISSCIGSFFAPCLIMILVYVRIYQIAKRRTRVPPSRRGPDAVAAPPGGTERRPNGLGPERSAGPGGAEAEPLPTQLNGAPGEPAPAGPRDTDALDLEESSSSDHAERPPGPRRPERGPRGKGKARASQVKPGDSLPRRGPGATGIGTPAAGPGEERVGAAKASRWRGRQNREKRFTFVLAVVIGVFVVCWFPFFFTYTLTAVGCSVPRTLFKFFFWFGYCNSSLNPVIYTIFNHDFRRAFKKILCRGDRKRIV

[3] = target: D(1A) dopamine receptor (Homo sapiens, UniProt P21728)
Chain of D(1A) dopamine receptor (P21728 whole entry): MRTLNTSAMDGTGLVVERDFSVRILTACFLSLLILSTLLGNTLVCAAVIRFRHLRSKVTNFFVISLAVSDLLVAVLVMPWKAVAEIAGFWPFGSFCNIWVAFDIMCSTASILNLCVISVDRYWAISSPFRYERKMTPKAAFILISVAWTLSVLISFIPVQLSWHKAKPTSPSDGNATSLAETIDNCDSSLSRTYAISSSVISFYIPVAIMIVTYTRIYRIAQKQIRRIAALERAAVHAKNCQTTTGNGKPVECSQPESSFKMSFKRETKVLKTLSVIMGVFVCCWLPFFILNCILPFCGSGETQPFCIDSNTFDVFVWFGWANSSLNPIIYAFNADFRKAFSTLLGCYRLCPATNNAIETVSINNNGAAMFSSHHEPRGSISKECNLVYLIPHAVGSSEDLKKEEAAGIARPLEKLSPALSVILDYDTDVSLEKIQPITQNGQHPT

[4] = target: cGMP-inhibited 3',5'-cyclic phosphodiesterase 3A (Homo sapiens, UniProt Q14432); type: functional
Chain of cGMP-inhibited 3',5'-cyclic phosphodiesterase 3A (Q14432 whole entry): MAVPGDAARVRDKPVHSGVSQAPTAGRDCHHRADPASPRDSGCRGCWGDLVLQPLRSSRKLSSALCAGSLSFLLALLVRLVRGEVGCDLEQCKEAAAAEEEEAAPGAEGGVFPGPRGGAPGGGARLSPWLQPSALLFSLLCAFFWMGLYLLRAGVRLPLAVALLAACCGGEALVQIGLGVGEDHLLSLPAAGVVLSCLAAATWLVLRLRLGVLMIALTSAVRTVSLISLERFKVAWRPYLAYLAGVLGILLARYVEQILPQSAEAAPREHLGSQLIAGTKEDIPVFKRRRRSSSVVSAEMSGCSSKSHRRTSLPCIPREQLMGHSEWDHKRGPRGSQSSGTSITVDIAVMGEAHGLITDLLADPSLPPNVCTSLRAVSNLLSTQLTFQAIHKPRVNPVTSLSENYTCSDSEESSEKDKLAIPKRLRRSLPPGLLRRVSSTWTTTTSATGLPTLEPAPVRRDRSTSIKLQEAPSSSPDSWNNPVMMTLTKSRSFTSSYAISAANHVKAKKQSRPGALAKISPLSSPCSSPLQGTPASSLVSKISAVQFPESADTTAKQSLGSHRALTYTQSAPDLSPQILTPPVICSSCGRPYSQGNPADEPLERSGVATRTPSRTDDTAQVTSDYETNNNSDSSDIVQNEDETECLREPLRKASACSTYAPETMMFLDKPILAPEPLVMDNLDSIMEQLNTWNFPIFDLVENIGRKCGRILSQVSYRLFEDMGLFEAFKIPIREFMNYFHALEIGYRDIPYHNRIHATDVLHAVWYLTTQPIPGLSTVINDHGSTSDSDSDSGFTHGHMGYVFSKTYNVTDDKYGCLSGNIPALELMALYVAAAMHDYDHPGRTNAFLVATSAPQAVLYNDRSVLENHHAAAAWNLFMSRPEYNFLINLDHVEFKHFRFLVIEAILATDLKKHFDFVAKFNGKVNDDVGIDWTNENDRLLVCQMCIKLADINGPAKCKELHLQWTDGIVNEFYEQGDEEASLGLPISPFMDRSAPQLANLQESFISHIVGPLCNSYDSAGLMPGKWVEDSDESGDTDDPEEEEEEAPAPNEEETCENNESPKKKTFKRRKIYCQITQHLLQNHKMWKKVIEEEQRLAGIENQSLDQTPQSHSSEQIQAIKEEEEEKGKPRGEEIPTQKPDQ

[5] = target: Acetylcholinesterase (Homo sapiens, UniProt P22303); type: functional
Chain of Acetylcholinesterase (P22303 whole entry): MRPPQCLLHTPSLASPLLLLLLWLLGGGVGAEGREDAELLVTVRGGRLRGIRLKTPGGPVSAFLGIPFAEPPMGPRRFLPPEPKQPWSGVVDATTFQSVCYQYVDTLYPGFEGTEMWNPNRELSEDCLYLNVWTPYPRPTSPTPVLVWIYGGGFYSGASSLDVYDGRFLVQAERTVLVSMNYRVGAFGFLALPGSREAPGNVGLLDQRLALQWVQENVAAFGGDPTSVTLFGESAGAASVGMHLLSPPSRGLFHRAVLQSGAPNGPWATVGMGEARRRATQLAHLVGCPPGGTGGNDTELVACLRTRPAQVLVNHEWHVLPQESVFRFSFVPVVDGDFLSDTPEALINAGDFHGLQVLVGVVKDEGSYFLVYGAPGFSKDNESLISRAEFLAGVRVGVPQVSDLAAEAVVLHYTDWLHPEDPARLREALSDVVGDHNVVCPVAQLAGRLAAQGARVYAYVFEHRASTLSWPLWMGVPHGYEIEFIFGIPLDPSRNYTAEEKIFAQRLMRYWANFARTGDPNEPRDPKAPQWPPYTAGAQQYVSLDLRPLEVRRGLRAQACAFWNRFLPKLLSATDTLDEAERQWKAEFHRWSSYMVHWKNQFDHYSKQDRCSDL

[6] = target: Histamine H3 receptor (Homo sapiens, UniProt Q9Y5N1)
Chain of Histamine H3 receptor (Q9Y5N1 whole entry): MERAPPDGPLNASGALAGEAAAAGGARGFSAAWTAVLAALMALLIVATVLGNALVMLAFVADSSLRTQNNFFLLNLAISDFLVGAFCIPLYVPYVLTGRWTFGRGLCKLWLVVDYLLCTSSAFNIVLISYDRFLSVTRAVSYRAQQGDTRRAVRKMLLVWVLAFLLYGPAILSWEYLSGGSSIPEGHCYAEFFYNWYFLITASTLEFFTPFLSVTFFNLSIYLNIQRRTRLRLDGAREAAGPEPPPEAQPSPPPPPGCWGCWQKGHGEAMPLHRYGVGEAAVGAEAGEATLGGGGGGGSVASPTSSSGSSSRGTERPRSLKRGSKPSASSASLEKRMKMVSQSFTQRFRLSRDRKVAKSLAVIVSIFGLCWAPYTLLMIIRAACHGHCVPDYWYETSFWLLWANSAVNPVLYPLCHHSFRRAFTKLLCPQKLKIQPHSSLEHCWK

[7] = target: T2, Prostaglandin G/H synthase 1 (Homo sapiens, UniProt P23219); type: functional
T2 sequence (P23219 whole entry): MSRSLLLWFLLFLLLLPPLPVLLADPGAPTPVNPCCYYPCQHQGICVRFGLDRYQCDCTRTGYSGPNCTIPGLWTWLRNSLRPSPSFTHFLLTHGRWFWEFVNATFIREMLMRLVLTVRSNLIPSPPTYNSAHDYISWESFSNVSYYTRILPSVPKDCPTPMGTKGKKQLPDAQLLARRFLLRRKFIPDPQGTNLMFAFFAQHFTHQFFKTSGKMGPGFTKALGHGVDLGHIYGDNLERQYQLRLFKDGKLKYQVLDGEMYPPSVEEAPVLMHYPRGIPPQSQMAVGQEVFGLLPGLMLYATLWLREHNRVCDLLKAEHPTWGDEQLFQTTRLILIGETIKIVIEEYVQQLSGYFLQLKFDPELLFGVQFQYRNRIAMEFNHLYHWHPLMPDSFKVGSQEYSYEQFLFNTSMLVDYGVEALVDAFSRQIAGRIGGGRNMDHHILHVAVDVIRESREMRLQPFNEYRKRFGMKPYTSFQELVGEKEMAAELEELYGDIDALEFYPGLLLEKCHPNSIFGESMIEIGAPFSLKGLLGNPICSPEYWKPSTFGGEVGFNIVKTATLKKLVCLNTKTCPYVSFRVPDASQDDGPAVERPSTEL

[8] = target: Sodium-dependent dopamine transporter (Homo sapiens, UniProt Q01959)
[9] = target: 3',5'-cyclic-AMP phosphodiesterase 4A (Homo sapiens, UniProt P27815); type: functional
[10] = target: Prothrombin (Homo sapiens, UniProt P00734); type: functional
[11] = target: T3, 5-hydroxytryptamine receptor 1A (Homo sapiens, UniProt P08908)
T3 sequence (P08908 whole entry): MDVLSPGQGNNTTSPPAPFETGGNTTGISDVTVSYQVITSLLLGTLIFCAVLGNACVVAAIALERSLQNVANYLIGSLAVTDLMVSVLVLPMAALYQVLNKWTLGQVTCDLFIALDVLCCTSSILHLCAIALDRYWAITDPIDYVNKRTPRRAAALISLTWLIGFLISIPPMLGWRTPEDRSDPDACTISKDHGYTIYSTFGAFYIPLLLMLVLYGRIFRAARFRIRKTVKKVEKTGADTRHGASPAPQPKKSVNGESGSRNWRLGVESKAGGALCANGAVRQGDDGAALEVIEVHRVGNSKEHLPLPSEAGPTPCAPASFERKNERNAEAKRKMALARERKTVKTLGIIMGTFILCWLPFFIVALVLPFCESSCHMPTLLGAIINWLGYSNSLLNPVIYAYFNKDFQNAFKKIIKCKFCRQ

[12] = target: T2, Prostaglandin G/H synthase 1; type: functional; remark: listed apart in the source
[13] = target: T4, Thromboxane A2 receptor (Homo sapiens, UniProt P21731); type: functional, cell-based
T4 sequence (P21731 whole entry): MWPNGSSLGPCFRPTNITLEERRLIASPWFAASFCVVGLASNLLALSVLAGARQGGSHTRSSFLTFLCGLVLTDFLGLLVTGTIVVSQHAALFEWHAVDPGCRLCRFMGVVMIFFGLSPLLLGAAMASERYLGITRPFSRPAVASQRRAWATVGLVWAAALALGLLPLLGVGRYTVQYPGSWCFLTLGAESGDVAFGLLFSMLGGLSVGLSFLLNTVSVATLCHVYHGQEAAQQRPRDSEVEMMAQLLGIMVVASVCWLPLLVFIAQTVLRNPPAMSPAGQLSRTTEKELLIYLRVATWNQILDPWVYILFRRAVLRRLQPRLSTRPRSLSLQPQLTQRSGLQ

[14] = target: T5, Muscarinic acetylcholine receptor M2 (Homo sapiens, UniProt P08172)
T5 sequence (P08172 whole entry): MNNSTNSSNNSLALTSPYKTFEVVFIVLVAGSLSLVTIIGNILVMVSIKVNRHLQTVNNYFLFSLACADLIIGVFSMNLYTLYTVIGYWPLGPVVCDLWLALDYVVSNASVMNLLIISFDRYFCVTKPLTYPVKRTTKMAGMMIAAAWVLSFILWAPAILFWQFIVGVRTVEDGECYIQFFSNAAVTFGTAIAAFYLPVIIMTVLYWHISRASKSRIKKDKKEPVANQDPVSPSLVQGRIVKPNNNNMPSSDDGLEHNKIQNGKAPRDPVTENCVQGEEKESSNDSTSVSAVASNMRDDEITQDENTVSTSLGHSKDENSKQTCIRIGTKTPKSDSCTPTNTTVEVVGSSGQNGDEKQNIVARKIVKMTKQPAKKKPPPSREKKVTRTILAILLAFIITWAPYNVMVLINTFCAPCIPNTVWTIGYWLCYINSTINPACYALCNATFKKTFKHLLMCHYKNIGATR

[15] = target: Voltage-gated inwardly rectifying potassium channel KCNH2 (Homo sapiens, UniProt Q12809); type: functional; details: read-out: AC50
Chain of Voltage-gated inwardly rectifying potassium channel KCNH2 (Q12809 whole entry): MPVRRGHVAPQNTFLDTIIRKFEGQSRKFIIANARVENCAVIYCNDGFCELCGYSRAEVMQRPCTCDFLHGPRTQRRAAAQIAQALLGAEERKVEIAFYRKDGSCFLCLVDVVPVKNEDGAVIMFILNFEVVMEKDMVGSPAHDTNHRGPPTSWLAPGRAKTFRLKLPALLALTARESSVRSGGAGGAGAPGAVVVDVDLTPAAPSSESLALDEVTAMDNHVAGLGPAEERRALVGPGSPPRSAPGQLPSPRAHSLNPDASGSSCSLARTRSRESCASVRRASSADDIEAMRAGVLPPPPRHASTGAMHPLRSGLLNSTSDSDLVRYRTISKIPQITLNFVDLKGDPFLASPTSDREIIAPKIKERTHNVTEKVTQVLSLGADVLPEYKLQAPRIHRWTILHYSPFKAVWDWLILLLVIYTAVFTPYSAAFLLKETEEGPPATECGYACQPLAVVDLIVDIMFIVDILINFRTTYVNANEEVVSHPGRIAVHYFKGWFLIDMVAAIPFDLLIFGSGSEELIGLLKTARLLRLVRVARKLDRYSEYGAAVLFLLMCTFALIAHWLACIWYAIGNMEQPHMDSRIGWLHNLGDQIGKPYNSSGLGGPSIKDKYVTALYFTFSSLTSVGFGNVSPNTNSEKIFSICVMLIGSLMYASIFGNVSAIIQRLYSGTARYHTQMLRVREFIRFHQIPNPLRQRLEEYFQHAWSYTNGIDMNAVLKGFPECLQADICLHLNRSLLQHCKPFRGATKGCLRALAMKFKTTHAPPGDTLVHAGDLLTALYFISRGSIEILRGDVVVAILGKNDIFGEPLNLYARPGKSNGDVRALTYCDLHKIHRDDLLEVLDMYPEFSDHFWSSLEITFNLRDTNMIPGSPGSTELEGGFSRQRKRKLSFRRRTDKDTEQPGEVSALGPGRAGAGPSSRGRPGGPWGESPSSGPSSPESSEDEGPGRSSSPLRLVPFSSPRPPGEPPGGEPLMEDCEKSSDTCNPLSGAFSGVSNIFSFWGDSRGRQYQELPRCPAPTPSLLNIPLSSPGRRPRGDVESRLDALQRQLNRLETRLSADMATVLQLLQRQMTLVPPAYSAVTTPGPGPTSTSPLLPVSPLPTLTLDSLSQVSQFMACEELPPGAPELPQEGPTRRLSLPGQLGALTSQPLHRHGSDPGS
Note: assay procedure not described here.

| SMILES | AC50 [1] [µM] | AC50 [2] [µM] | AC50 [3] [µM] | AC50 [4] [µM] | AC50 [5] [µM] | AC50 [6] [µM] | AC50 [7] [µM] | AC50 [8] [µM] | AC50 [9] [µM] | AC50 [10] [µM] | AC50 [11] [µM] | AC50 [12] [µM] | AC50 [13] [µM] | AC50 [14] [µM] | AC50 [15] [µM] |
| --- | --- | --- | --- | --- | --- | --- | --- | --- | --- | --- | --- | --- | --- | --- | --- |
| CN1CCC[C@@H]1Cc1c[nH]c2ccc(CCS(=O)(=O)c3ccccc3)cc12 | > 30 | 7.51 | 27.7 | > 30 | > 30 | 5.7 | > 30 | 26.6 | > 30 | > 30 | 0.0214 | > 30 | > 30 | – | – |
| COc1nccnc1NS(=O)(=O)c1ccc(N)cc1 | > 30 | > 30 | > 30 | > 30 | > 30 | > 30 | > 30 | > 30 | > 30 | > 30 | > 30 | > 30 | > 30 | > 30 | > 30 |
| O=C(Nc1cccc2c(=O)cc(-c3nnn[nH]3)oc12)c1ccc(OCCCCc2ccccc2)cc1 | 4.45 | > 30 | 10.1 | > 30 | > 30 | > 30 | 26.7 | 8.24 | 8.21 | > 30 | 4.1 | > 30 | > 30 | > 30 | – |
| NC(=O)c1nc(F)c[nH]c1=O | > 30 | > 30 | > 30 | > 30 | > 30 | > 30 | > 30 | > 30 | > 30 | > 10 | > 30 | > 30 | > 30 | > 30 | > 30 |
| CN(C)CCCN1C(=O)c2cc([N+](=O)[O-])ccc2Oc2ccccc21 | 15 | 28.4 | 26 | > 30 | > 30 | > 30 | 29.6 | > 30 | > 30 | > 30 | 4.17 | > 30 | > 30 | 20.6 | > 30 |
| O=S(=O)(O)CCS [2-MERCAPTOETHANESULFONIC ACID] | > 30 | > 30 | > 30 | > 30 | > 10 | > 30 | 0.486 | > 30 | 9 | > 30 | > 30 | 0.78 | > 30 | > 30 | > 30 |
| N[C@@H](CSSC[C@H](N)C(=O)O)C(=O)O [CYSTINE] | > 30 | > 30 | > 30 | > 30 | > 30 | > 30 | > 30 | > 30 | > 30 | > 30 | > 30 | > 30 | > 30 | > 30 | – |
| C[C@]12CCC(=O)C=C1CC[C@@H]1[C@@H]2[C@@H](O)C[C@@]2(C)[C@H]1CC[C@]2(O)C(=O)COC(=O)CCC(=O)O [HYDROCORTISONE HEMISUCCINATE ANHYDROUS] | – | > 30 | > 30 | > 30 | > 30 | > 30 | > 30 | > 30 | > 30 | > 30 | > 30 | > 30 | > 30 | > 30 | > 30 |
| CC(C)(N)C(=O)N[C@H](Cc1c[nH]c2ccccc12)C(=O)N[C@H](Cc1c[nH]c2ccccc12)NC=O [MACIMORELIN] | > 30 | > 30 | > 30 | > 30 | > 30 | > 30 | > 30 | > 30 | > 30 | > 30 | > 30 | > 30 | > 30 | > 30 | – |
| CCCCCOc1ccc(-c2cc(-c3ccc(C(=O)N[C@H]4C[C@@H](O)[C@@H](O)NC(=O)[C@@H]5[C@@H](O)[C@@H](C)CN5C(=O)[C@H]([C@H](O)CC(N)=O)NC(=O)[C@H]([C@H](O)[C@@H](O)c5ccc(O)c(OS(=O)(=O)O)c5)NC(=O)[C@@H]5C[C@@H](O)CN5C(=O)[C@H]([C@@H](C)O)NC4=O)cc3)no2)cc1 [MICAFUNGIN] (X1-[Orn(4R-OH,5R-OH)]T[Hyp][hTyr(3S-OH,4S-OH,3'-OSO3H)][Gln(3R-OH)][Pro(3S-OH,4S-Me)]; lactam 1-C) | > 30 | > 30 | > 30 | > 30 | > 30 | > 30 | > 30 | 21.7 | 29.5 | > 30 | > 30 | > 30 | > 30 | > 30 | – |
| CN1CCC[C@H]1c1cccnc1 [NICOTINE] | > 30 | > 30 | > 30 | > 30 | > 30 | > 30 | 22 | > 30 | > 30 | > 30 | > 30 | > 30 | > 30 | > 30 | – |
| C#C[C@]1(O)CC[C@H]2[C@@H]3CCC4=C(CCC(=O)C4)[C@H]3CC[C@@]21C [NORETHYNODREL] | > 30 | > 30 | > 30 | 23.4 | > 30 | > 30 | 11.8 | > 30 | > 30 | > 30 | > 30 | > 30 | > 30 | > 30 | – |
| CNC[C@H](O)c1cccc(O)c1 [PHENYLEPHRINE] | 4.68 | – | 18.1 | > 30 | > 30 | > 30 | > 30 | 29.4 | > 30 | > 30 | 1.31 | > 30 | > 30 | > 30 | > 30 |
| CN(C)C(=O)c1nc(CNC(=O)CN)n(-c2ccc(Cl)cc2C(=O)c2ccccc2Cl)n1 [RILMAZAFONE] | > 30 | > 30 | > 30 | > 30 | > 30 | > 30 | 13.5 | > 30 | > 30 | > 30 | > 30 | > 30 | > 30 | > 30 | – |
